From US20120214784A1, “SPIROPIPERIDINE COMPOUNDS AS ORL-1 RECEPTOR ANTAGONISTS” (ELI LILLY AND COMPANY, priority 2009, published 2012)

Experiments:
[1] = test system: NIH-Swiss mice; 129S6 wild type and nociceptin/ORL1 receptor knockout mice; assay: Forced-swim test in mice (mFST); type: in vivo, mouse; conditions: mFST
Text: Forced-Swim Test in Mice (mFST) mFST is an established in vivo assay for antidepressant activity (Li et al. J Pharmacol Exp Ther. 319(1):254-9, 2006.). […] The mFST was used to evaluate potential antidepressant-like activity of novel nociceptin/ORL1 antagonists according to previously published methods (Li et al. J Pharmacol Exp Ther. 319(1):254-9, 2006.). Briefly, male NIH-Swiss mice (Harlan Sprague-Dawley, Indianapolis, Ind.) weighing between 25-30 g are used. Group housed animals are removed from the vivarium to the testing area in their own cages and allowed to adapt to the new environment for at least 1 hour before testing. Alternatively, male 129S6 wild type and nociceptin/ORL1 receptor knockout mice were used to confirm dependence of the response to compound was nociceptin/ORL1 receptor dependent. All compounds are prepared in 20% Captisol, 25 mM phosphate buffer, pH 2.0 on the day of use. Mice are placed in a cylinder (diameter: 10 cm; height: 25 cm) filled with 6 cm of water (22-25° C.) for 6 min. The duration of immobility during the last 4 min. of the 6 min. period of the test was scored. A mouse is recorded as immobile when floating motionless or making only those movements necessary to keep its head above water.

[2] = target: T1, cloned human ORL1 receptors (Homo sapiens, UniProt P41146); assay: [3H]-OFQ/nociceptin receptor binding assay
T1 construct: expressed in transfected cells; host or cells: CHO cells (membranes)
Procedure: Radioligand binding assays are commonly used to determine the affinity (Ki) or potency of a compound to bind to a particular receptor or target protein. A filtration-based [3H]-OFQ/nociceptin receptor binding assay is developed based on previous assay formats (Ardati A, Henningsen R A, Higelin J, Reinscheid R K, Civelli O, Monsma F J Jr. Mol. Pharmacol. 1997 May; 51(5):816-24.) with minor modifications. [3H]-OFQ/nociceptin binding assays are carried out in deep-well 96-well plates. [^3H]OFQ (final assay concentration 0.2 nM) competition studies are carried out with 5-10 μg of membrane protein (isolated from Chinese hamster ovary cells (CHO cells) expressing cloned human ORL1 receptors) in a final assay volume of 0.5 mL of buffer containing 20 mM HEPES, pH 7.4, 5 mM MgCl2, 1 mM EGTA, 100 mM NaCl, 0.1% bovine serum albumin. Samples are incubated for 60 min. at room temperature, which is found to be optimal for competition assays. The assays are terminated by filtration through glass fiber filters (Wallac filtermat A) [pretreated with 0.3% polyethylenimine (Sigma) for 1 hr] on a Tometc cell harvester, and the filters are washed three times with 5 mL of ice-cold 50 mM Tris.HCl, pH 7.4. Filtermats are then dried and imbedded with Meltilex scintillant A and the radioactivity counted in a Wallac Microbeta scintillation counter. Specific binding is determined by displacement with 100 nM unlabeled nociceptin. Curves are plotted as the percent of specific binding and IC50 values are determined using a sigmoidal dose response curve with variable slope. K, values are calculated from the IC50 by the equation of Cheng and Prusoff (Cheng, Y. C., and Prusoff, W. H., Biochem. Pharmacol. 22, 3099-3108 (1973)) where Ki=IC50×(1+D×Kd^−1)^−1. Similarly, Ki for the mu, kappa and delta opioids, serotonin, adrenergic, and muscarinic receptors may be determined using membranes expressing the desired receptor and appropriate corresponding radioligand competitor molecules.

Adenosine A3 = Adenosine A3 (Homo sapiens, UniProt P0DMS8); assay: Radioligand binding selectivity
5-HT1D = 5-HT1D (Homo sapiens, UniProt P28221); assay: Radioligand binding selectivity
5-HT1B = 5-HT1B (Homo sapiens, UniProt P28222); assay: Radioligand binding selectivity
Delta Opioid = Delta Opioid (Homo sapiens, UniProt P41143); assay: Radioligand binding selectivity
5-HT2B = 5-HT2B (Homo sapiens, UniProt P41595); assay: Radioligand binding selectivity
5-HT5 = 5-HT5 (Homo sapiens, UniProt P47898); assay: Radioligand binding selectivity
Muscarinic M3 = Muscarinic M3 (Homo sapiens, UniProt P20309); assay: Radioligand binding selectivity
5-HT6 = 5-HT6 (Homo sapiens, UniProt P50406); assay: Radioligand binding selectivity
Muscarinic M1 = Muscarinic M1 (Homo sapiens, UniProt P11229); assay: Radioligand binding selectivity
Mu Opioid = Mu Opioid (Homo sapiens, UniProt P35372); assay: Radioligand binding selectivity
5-HT2C = 5-HT2C (Homo sapiens, UniProt P28335); assay: Radioligand binding selectivity
5-HT7 = 5-HT7 (Homo sapiens, UniProt P34969); assay: Radioligand binding selectivity
Muscarinic M2 = Muscarinic M2 (Homo sapiens, UniProt P08172); assay: Radioligand binding selectivity
Kappa Opioid = Kappa Opioid (Homo sapiens, UniProt P41145); assay: Radioligand binding selectivity
5-HT4 = 5-HT4 (Homo sapiens, UniProt Q13639); assay: Radioligand binding selectivity
Muscarinic M5 = Muscarinic M5 (Homo sapiens, UniProt P08912); assay: Radioligand binding selectivity
5-HT2A = 5-HT2A (Homo sapiens, UniProt P28223); assay: Radioligand binding selectivity
5-HT2A, sequence (P28223 whole entry, species assumed): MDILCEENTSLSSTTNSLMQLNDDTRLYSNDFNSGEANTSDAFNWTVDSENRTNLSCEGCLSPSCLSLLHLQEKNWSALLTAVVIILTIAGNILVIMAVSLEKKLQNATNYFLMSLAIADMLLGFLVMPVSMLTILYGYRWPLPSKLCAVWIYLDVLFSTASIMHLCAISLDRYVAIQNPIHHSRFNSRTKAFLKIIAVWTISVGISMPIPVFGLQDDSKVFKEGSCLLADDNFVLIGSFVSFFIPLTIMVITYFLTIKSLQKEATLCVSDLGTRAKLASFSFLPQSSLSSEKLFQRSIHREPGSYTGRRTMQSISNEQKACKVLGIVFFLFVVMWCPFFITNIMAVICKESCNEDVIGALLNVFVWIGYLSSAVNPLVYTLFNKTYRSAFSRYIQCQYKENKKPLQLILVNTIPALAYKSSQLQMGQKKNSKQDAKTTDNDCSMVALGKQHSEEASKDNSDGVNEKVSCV

Adenosine A3, sequence (P0DMS8 whole entry): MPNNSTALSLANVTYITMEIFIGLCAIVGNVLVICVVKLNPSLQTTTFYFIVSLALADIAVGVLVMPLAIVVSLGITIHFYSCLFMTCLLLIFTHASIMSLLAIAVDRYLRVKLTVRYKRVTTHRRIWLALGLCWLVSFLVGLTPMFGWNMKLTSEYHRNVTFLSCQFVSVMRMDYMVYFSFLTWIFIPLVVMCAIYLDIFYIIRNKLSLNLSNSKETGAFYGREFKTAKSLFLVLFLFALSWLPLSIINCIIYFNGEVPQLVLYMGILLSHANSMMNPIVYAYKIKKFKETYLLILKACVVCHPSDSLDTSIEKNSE
5-HT1D, sequence (P28221 whole entry, species assumed): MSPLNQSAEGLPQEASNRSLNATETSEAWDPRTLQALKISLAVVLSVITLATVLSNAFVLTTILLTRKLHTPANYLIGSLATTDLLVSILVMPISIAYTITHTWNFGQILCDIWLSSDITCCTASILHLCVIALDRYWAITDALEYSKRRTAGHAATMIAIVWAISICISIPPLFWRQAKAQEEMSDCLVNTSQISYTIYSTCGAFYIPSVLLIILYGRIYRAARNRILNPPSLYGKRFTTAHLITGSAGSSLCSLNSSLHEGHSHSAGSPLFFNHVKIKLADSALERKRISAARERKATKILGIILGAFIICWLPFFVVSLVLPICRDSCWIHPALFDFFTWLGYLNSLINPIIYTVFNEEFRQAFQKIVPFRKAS
Kappa Opioid, sequence (P41145 whole entry): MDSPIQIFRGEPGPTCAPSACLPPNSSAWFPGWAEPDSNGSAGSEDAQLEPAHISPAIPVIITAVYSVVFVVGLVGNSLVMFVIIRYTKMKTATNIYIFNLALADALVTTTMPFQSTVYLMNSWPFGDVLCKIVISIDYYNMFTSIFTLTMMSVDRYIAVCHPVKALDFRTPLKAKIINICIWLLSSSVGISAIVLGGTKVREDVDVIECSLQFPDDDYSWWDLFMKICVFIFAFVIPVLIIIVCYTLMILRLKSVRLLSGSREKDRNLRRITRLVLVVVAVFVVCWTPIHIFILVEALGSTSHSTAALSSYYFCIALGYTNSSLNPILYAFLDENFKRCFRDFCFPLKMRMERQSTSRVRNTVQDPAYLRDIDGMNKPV
Delta Opioid, sequence (P41143 whole entry): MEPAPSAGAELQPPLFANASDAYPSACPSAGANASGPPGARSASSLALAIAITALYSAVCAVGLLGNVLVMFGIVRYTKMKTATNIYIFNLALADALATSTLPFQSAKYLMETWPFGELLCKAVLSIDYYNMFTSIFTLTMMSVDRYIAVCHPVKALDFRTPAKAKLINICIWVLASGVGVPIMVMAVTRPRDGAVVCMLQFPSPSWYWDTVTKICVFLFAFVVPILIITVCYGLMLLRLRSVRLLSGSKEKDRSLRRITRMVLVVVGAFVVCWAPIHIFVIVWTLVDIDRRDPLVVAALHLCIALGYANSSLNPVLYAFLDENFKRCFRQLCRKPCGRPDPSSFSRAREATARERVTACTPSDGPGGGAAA
Muscarinic M5, sequence (P08912 whole entry): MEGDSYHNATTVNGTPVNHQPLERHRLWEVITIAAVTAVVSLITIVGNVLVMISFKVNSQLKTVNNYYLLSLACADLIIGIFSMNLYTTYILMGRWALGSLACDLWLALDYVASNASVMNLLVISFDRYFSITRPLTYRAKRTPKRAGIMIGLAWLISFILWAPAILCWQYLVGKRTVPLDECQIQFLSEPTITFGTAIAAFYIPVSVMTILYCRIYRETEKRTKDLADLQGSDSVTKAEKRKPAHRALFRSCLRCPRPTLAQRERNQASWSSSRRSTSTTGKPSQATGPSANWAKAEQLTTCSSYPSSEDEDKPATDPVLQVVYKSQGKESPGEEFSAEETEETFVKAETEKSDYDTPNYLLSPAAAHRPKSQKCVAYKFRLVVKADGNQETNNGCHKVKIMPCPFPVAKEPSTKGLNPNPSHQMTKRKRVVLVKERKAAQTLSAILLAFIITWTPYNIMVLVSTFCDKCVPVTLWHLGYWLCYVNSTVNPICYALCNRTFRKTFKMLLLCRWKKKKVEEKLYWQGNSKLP
5-HT1B, sequence (P28222 whole entry, species assumed): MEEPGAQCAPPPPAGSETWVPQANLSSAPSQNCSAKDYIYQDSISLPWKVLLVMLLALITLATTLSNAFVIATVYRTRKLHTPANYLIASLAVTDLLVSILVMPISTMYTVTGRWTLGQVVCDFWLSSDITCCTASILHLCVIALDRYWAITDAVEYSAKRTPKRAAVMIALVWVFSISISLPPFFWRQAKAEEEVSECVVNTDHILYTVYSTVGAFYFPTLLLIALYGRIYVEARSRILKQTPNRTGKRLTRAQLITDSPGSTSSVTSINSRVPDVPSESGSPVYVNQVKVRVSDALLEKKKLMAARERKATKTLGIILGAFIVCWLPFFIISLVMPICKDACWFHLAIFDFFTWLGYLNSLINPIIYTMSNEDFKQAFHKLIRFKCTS
5-HT7, sequence (P34969 whole entry, species assumed): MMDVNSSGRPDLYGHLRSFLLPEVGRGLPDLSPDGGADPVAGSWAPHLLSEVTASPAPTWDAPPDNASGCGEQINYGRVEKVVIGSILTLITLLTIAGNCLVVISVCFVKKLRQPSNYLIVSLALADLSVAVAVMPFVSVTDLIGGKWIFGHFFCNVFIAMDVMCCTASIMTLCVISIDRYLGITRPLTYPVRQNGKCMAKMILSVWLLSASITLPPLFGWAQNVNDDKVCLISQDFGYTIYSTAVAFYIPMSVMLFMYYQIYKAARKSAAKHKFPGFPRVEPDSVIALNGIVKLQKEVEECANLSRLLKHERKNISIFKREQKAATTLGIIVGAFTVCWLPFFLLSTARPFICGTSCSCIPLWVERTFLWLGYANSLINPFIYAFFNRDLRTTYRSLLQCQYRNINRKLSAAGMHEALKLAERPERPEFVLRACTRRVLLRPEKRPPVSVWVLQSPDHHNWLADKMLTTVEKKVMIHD
Muscarinic M2, sequence (P08172 whole entry): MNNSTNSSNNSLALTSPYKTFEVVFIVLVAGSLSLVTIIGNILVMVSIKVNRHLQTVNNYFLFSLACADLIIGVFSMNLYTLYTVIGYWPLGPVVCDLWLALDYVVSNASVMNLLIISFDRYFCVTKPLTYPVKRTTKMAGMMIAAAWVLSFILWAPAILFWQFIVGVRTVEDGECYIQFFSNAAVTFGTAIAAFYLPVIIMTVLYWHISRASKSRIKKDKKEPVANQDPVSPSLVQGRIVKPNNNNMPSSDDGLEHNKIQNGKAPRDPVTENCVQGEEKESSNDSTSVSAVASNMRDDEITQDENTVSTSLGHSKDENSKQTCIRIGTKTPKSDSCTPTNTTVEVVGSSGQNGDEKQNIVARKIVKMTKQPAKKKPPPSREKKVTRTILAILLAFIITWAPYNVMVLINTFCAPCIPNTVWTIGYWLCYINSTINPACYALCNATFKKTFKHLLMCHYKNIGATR
T1 sequence (P41146 whole entry): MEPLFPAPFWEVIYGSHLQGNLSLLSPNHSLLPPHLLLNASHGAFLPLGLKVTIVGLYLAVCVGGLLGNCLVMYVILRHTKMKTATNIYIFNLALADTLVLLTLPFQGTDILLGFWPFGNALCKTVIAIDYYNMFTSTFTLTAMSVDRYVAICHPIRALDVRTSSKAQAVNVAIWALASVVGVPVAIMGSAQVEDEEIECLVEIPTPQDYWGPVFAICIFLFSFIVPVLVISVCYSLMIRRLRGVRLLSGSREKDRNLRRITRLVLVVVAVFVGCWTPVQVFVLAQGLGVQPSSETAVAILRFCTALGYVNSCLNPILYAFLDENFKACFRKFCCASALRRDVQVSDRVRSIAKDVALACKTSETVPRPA
Muscarinic M1, sequence (P11229 whole entry): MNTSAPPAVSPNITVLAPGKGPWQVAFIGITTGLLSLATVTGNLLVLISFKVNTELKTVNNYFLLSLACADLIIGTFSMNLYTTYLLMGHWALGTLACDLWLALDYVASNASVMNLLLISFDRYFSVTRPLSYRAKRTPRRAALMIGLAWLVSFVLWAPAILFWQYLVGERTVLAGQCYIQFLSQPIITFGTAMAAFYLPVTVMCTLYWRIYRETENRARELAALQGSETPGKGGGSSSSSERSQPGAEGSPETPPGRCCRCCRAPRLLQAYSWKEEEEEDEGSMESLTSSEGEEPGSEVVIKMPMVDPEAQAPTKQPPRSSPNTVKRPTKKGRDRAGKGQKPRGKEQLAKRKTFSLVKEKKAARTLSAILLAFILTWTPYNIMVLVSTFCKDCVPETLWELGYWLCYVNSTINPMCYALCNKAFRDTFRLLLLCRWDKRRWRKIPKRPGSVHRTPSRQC

Cc1nn(-c2c(F)cccc2F)cc1CN1CCC2(CC1)OCC(F)(F)c1cc(Cl)sc12.O=C(O)C(O)C(O)C(=O)O [Example 2, 2-Chloro-1′-[[1-(2,6-difluorophenyl)-3-methyl-pyrazol-4-yl]methyl]-4,4-difluoro-spiro[5H-thieno[2,3-c]pyran-7,4′-piperidine] (L)-Tartrate]
maximum effect, reduction in immobilization time [1]: 56%
ED60 ([1]; immobility time): 23 nM
Ki [2]: 0.17 nM
Ki (Adenosine A3): 2300 nM
Ki (5-HT1D): > 7890 nM
Ki (5-HT1B): > 3580 nM
Ki (Delta Opioid): > 481 nM
Ki (5-HT2B): 1160 nM
Ki (5-HT5): > 9020 nM
Ki (Muscarinic M3): > 24200 nM
Ki (5-HT6): > 5830 nM
Ki (Muscarinic M1): 1380 nM
Ki (Mu Opioid): > 467 nM
Ki (5-HT2C): > 8360 nM
Ki (5-HT7): > 3980 nM
Ki (Muscarinic M2): > 8000 nM
Ki (Kappa Opioid): > 458 nM
Ki (5-HT4): > 1970 nM
Ki (Muscarinic M5): 2800 nM
Ki (5-HT2A): > 7180 nM
